Data set [1] can be described thus: Plasma protein binding, human. Format: in vitro ADME. The following applies: human, plasma, pH 7.4, human plasma; read-out: PPB % human (converted). The procedure: (§1) Plasma protein binding was determined by equilibrium dialysis using the Pierce Red Device plate with inserts (ThermoScientific). Test compound at 5 μM (0.5% DMSO) spiked in freshly thawed human, rat, mouse, or dog plasma (Bioreclamation INC, Westbury, NY, USA) was dialyzed against phosphate-buffered saline (PBS, pH 7.4) at 37 °C under shaking for 4 h. Aliquots were taken from each side of the well, and matrix matched. Proteins were precipitated with an excess of acetonitrile, samples were mixed and centrifuged, and the supernatant was analyzed by liquid chromatography–mass spectrometry/mass spectrometry (LC–MS/MS). Addition of compound peak areas in the buffer chamber and the plasma chamber was considered to be 100% compound.

In another data set the target is T1, CYP2C9 (Homo sapiens, UniProt P11712).
T1 construct: tissue BD Gentest; host or cells: human liver microsomes
T1 sequence (P11712 whole entry): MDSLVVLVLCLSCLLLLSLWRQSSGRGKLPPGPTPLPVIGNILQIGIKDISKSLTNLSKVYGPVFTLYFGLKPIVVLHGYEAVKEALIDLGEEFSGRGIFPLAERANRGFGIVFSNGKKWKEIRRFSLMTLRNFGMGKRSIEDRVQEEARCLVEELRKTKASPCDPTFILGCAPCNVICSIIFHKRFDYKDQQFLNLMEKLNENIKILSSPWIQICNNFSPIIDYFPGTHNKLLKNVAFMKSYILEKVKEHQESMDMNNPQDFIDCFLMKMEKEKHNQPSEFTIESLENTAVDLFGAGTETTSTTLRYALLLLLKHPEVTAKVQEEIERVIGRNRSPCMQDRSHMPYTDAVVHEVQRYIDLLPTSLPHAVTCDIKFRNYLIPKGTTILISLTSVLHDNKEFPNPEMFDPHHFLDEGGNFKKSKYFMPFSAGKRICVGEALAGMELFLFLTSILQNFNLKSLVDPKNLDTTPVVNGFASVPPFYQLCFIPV
In words: CYP reversible inhibition in HLM, CYP2C9. Format: in vitro ADME. The settings on record: probe not given; read-out: CYP inhibition IC50, 2C9. Here is the method: (§2) Test compounds were diluted in methanol and then added to mixture containing 50 mM potassium phosphate buffer, pH 7.4, human liver microsomes (BD Gentest) and probe substrate. After prewarming for 5 min at 37 °C, the reaction was started by adding cofactor mix (7.65 mg/mL glucose-6-phosphate, 1.7 mg/mL NADP, 6 U/mL of glucose-6-phosphate dehydrogenase), resulting in seven final concentrations of test compounds in the range 0.14–100 μM (2% methanol). Isoform specific conditions regarding probe substrate and microsomal protein concentrations are available in Table 2. Final concentrations of cofactor mix components were as follows: 1.56 mg/mL glucose-6-phosphate, 0.34 mg/mL NADP, and 1.2 U/mL glucose-6-phosphate dehydrogenase. After incubation at 37 °C, the reaction was terminated with acetonitrile:methanol (2:1) solution with internal standard. Samples were centrifuged, and the supernatant fractions were analyzed by LC-MS/MS. The instrument responses (test compounds and internal standard peak areas) were referenced to those for solvent controls (assumed as 100%) in order to determine the percentage reduction in probe metabolism. Percent of control activity vs concentration plots were generated and fitted using GraphPad Prism software to generate IC50.

The next data set can be described thus: PK rat. Format: in vivo. The procedure:
These studies were performed with naïve male Sprague–Dawley rats (Janvier France, 6–8 weeks old). Rats were dosed iv via a bolus in the tail vein with a dose level of 0.1 mg/kg or orally as a single esophageal gavage with a dose level of 5 mg/kg. For the iv route, the compound was formulated in PEG200/water (60/40; v/v). For the oral route, the compound was formulated in MC 0.5% (2/98) as a homogeneous suspension. Before the oral dosing, the animals were deprived of food for at least 12 h before compound administration until 3 h after administration. All animals had free access to the tap water. Blood samples were collected under light anesthesia and placed into tubes containing Li-heparin as an anticoagulant. Blood samples were collected up to 24 h after dosing (n = 3 rats per route). After centrifugation, the resulting plasma samples were assayed by LC-MS/MS with a nongood laboratory practice (non-GLP)-validated method. PK parameters were calculated by noncompartmental analysis using WinNonlin software (Certara, Princeton, NJ, USA).

Another data set concerns CYP3A4. In words: CYP3A4 induction (mRNA) in human hepatocytes. It counts as in vitro ADME. The following applies: for CYP (3A4) mRNA induction, result in words: compared with positive control rifampicin. Here is the method: Cryopreserved human hepatocytes from a single donor were seeded at 0.1 × 10^6 cells/well. The next day, cells were dosed with test compound in assay medium (final test compound concentration 10 μM; final DMSO concentration 0.1%). Positive control inducer, rifampicin, for CYP3A4, was incubated alongside the test compound. Negative control wells were included where the test compound is replaced by vehicle solvent (0.1% DMSO in assay medium). Each test or control compound was dosed in triplicate at a single concentration (10 μM). The cells were exposed to the solutions for 72 h with fresh solution added every 24 h. For mRNA assessment, all media was removed from each of the wells, and the cells were washed once. The cells were lysed, and total RNA was then isolated from the hepatocyte lysates. Reverse transcription was performed, and quantitative PCR analysis was performed on the resulting cDNA, using gene-specific primer probe sets for CYP3A4 target cDNA and endogenous control. Samples were analyzed using an ABI 7900 HT real time PCR system. For mRNA assessment, relative fold mRNA expression was determined based on the threshold cycle (CT) data of target gene relative to endogenous control for each reaction and normalized to negative control using the 2-ΔΔCT method. Data were expressed as fold activation relative to the vehicle control and, as a percent, to the 10 μM rifampicin using the following formula: % of positive control = ((fold increase of the cpd relative to vehicle control – 1)/(fold increase of the rifampicin at 10 μM – 1)) × 100.

In a further data set the target is CYP3A4 enzyme (Homo sapiens, UniProt P08684). Description: Mechanism-based inactivation of CYP3A4. Format: in vitro ADME.
Chain of CYP3A4 enzyme (P08684 whole entry): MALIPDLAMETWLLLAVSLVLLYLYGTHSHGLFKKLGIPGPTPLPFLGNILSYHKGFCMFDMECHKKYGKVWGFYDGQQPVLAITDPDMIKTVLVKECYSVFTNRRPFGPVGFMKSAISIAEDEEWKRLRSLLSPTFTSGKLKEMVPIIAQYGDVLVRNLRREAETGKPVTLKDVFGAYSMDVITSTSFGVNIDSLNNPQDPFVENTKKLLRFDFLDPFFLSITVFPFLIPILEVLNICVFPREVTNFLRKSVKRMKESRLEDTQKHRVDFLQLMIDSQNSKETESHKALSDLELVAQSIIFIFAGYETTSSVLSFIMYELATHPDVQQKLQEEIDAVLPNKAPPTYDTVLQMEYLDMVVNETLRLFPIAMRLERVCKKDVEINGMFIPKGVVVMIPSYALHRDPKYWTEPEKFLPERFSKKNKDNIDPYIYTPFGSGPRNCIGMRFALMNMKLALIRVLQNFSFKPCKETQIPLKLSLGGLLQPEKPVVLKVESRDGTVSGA
Data set [2] deals with cytochrome P450 subtypes except 2C9. Description: CYP inhibition, all subtypes except 2C9. Format: in vitro ADME. The settings on record: human, liver microsomes, pH 7.4. Here is the method:
as §2
On the technique in general: Microsomes from liver hold many membrane-bound enzymes, among them those of drug oxidation.

The nature of data set [3]: Plasma protein binding, rat. Format: in vitro ADME. The following applies: pH 7.4, read-out: PPB % rat (converted). The procedure:
as §1

In another data set the target is T2, ΔF508 CFTR (Homo sapiens, UniProt P13569, DEL508-508).
T2 construct: host or cells: CFBE41o- TetON cells, expression induced with doxycycline
T2 sequence (P13569 with tags, fused parts or gaps DEL508-508): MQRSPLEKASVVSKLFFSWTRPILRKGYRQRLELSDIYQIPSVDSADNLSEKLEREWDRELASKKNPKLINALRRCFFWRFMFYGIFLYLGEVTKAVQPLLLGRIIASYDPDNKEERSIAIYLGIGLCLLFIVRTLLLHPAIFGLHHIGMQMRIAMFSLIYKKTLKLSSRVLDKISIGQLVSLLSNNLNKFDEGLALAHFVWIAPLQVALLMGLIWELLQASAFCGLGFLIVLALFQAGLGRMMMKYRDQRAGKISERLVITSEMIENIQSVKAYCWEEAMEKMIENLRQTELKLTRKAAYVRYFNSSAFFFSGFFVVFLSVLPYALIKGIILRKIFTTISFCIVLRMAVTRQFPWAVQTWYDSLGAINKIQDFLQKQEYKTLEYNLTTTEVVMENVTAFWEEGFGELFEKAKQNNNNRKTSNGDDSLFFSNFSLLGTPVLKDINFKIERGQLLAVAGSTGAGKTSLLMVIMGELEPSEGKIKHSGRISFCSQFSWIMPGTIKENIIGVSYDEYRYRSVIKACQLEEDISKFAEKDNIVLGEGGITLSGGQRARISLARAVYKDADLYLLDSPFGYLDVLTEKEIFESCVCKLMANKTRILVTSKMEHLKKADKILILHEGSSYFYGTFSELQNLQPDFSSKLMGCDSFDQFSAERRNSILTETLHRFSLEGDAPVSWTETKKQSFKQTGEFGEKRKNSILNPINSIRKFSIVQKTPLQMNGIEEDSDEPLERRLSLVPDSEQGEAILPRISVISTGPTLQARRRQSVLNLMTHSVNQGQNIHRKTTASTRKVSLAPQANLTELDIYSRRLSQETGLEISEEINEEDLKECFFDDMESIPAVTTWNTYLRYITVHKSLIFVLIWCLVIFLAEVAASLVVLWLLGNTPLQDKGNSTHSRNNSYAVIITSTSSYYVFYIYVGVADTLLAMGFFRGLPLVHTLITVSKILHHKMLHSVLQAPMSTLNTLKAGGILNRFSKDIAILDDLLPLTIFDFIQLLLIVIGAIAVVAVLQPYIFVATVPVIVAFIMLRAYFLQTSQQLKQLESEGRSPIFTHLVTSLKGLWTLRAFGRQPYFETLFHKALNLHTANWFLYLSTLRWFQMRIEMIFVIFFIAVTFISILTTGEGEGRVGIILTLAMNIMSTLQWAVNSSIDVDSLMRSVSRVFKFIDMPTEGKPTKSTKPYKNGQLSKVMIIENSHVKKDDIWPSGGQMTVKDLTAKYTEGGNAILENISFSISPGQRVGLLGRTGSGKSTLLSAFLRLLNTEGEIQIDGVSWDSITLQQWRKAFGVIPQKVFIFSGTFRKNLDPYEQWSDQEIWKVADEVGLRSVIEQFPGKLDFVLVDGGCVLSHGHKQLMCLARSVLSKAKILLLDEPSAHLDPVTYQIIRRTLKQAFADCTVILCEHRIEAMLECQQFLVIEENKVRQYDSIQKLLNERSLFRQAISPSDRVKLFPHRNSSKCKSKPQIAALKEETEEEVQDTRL
Description: TECC (transepithelial clamp circuit) in primary CF-derived HBE cells. It counts as cell-based. Here is the method:
Bronchial epithelial cells isolated from the lungs of patients with CF homozygous for the ΔF508 CFTR mutation were obtained from McGill University (Montreal, QC, Canada) or the University of North Carolina (Chapel Hill, NC, United States). Cells were isolated from lungs obtained from donors undergoing planned transplantation. These primary cells were cultured directly on type IV collagen-coated polycarbonate Transwell supports with a diameter of 6.5 mm and pore size of 0.4 μm (Costar, #3397) for 18–25 days in an air–liquid interface, essentially as previously described for TECC.[23]
Twenty-four hours prior to the electrophysiological recording, corrector and/or potentiator compounds were added on both the apical and basolateral sides. TECC recordings were performed by using the TECC instrument developed and sold by EP Design (Bertem, Belgium). During the recording, the epithelial cells were bathed in a NaCl-Ringer solution (120 mM NaCl, 20 mM HEPES, 1.2 mM CaCl2, 1.2 mM MgCl2, 0.8 mM KH2PO4, 0.8 mM K2HPO4, 5 mM glucose, pH 7.4) on both the basolateral (640 μL) and the apical (160 μL) sides and kept at 37 °C. Corrector and potentiator compounds were readded at the same concentration used during the 24 h pretreatment. Apical amiloride was used to inhibit the endogenous ENaC currents (100 μM), while forskolin (10 μM) was applied on both the apical and basolateral sides to stimulate CFTR. Measurements were done during a 20 min time frame with recordings every 2 min. The transepithelial potential and transepithelial resistance were measured in an open circuit and transformed to Ieq using Ohm’s law. The maximal increase in Ieq (ΔIeq, the difference in current before and after forskolin or potentiator treatment) was used as a measure for the increased CFTR activity. EC50 values were generated by measuring the impact of different concentrations of compounds on ΔIeq in primary cells. For this purpose, each transwell was treated with a different compound concentration. CFTRInh-172 was added apically at 10 μM to assess the specificity of the response. Dose response data was fitted using a 3-parameter hill function of the form Response = Bottom + (Top – Bottom)/(1 + (EC50/concentration)) to determine EC50 values. Percentage efficacy was calculated using the following formula: (max response – neg control)/(C1 response – neg control).

Data set [4] in a line: Plasma protein binding, dog. The settings on record: dog, plasma, pH 7.4, dog plasma; read-out: PPB % dog (converted). Format: in vitro ADME. Here is the method:
as §1

The next data set is described as follows: PK dog. It counts as in vivo. The following applies: iv. Here is the method: These studies were performed with non-naïve male Beagle dogs (age 13.8 months old, origin: Marshall US, North Rose, NY 14516, USA; age 15.8 months old, origin: Harlan; age 17.7 months old, origin: Harlan). Dogs (n = 3) were dosed iv via a 10 min infusion via a catheter with a dose level of 1 mg/kg. After a washout of 3 days, they were dosed orally as a single gavage with a dose level of 5 or 1 mg/kg in PEG400/MC 0.5% or MC 0.5%. Before administration by the po route, animals were fasted for a period of at least 12 h before treatment, and food was given just after the 3 h of blood sampling. All animals had free access to tap water. Blood samples were taken without an anesthetic from a jugular or cephalic vein into tubes containing lithium heparin as an anticoagulant. Blood samples were taken up to 24 h after the start of the infusion. After centrifugation, the resulting plasma samples were assayed by LC-MS/MS with a nongood laboratory practice (non-GLP)-validated method. PK parameters were calculated by noncompartmental analysis using WinNonlin software (Certara, Princeton, NJ, USA).

Usually IC50 stands for the point on the concentration scale where inhibition reaches its midpoint. What is called bioavailability is the share of a dose that reaches the circulation, judged against a reference dose that is usually intravenous. Read a low bioavailability as poor availability. In the case of `CS(=O)(=O)NC(=O)c1cc(-c2ccc(N3CCC(C#N)CC3)nc2)c2c(C3CCC3)nn(-c3ccccc3)c2n1` [Compound 45], the fraction unbound at 4 h, 5 μM in data set [1] was 0.0035; in data set [3], 0.0003. In addition, the IC50 was 187 nM on CYP2C9 and not below 50000 nM in data set [2]. Also, the clearance in “PK rat” (male, Sprague-Dawley, plasma, 1 mg/kg, iv dosing, read-out: plasma clearance (converted)) is 0.41 mL/min/kg; in “PK rat” (male, Sprague-Dawley, plasma, iv, 0.1 mg/kg, formula-strings file, unit inferred, read-out: Cl (converted)) it was 0.41 mL/min/kg. The same molecule gave a bioavailability at 24 h in “PK rat” (male, Sprague-Dawley, plasma, 5 mg/kg po) of 63.4%. The Vd in “PK rat” (male, Sprague-Dawley, plasma, iv, 0.1 mg/kg, formula-strings file, unit inferred, read-out: Vss) was 0.195 L/kg; in “PK rat” (male, Sprague-Dawley, plasma, iv, 1 mg/kg, 1 mg/kg iv, read-out: Vss), 0.2 L/kg. For the same molecule, the “CYP (3A4) mRNA induction, result in words” value with CYP3A4 was “low CYP3A4 induction”. The “mechanism-based inactivation of CYP3A4” value at CYP3A4 enzyme is reported as “devoid of mechanism-based inactivation”.
What is called EC50 is the concentration needed to bring the measured effect to its halfway point. As for `CS(=O)(=O)NC(=O)c1cc(N2CCC(N3CCOCC3)CC2)c2c(C3CCC3)nn(-c3ccccc3)c2n1` [Compound 49], the fraction unbound at 4 h, 5 μM is 0.01 in data set [1], 0.015 in data set [4] and 0.01 in data set [3]. Also, at ΔF508 CFTR (GLPG1837 potency in triple combination), the “shift of the potentiator activity” value was 1 log unit. For the same molecule, the Emax at ΔF508 CFTR (primary ΔF508 homozygous HBE cells, 24 h incubation, with GLPG2222, read-out: TECC HBE with GLPG2222 % max activation) was 534%. Moreover, the EC50 on ΔF508 CFTR (primary ΔF508 homozygous HBE cells, 24 h incubation, with GLPG2222, read-out: TECC HBE with GLPG2222 EC50) worked out at 39 nM. For the same molecule, the CLu rat in “PK rat” (iv, unbound clearance) is 70 mL/min/kg. Besides, the clearance was 1 mL/min/kg in the data set “PK rat” (male, Sprague-Dawley, plasma, 0.1 mg/kg, iv, read-out: CLp rat (converted)) and 0.333 mL/min/kg in the data set “PK dog” (male, beagle, plasma, 1 mg/kg, read-out: CLp dog (converted)). The half-life in the data set “PK rat” (male, Sprague-Dawley, plasma, 0.1 mg/kg, iv, read-out: t1/2 iv rat (converted)) is 4.7 h; in “PK dog” (male, beagle, plasma, 1 mg/kg, read-out: t1/2 iv dog (converted)) it was 6.6 h. Further, the Vd came to 0.4 L/kg in the data set “PK rat” (male, Sprague-Dawley, plasma, iv, 0.1 mg/kg, iv, read-out: Vss rat) and 0.2 L/kg in the data set “PK dog” (male, beagle, plasma, 1 mg/kg, read-out: Vss dog). Further, the “CYP induction @10 μM (mRNA) % rifampicin” value is recorded as 6.7% in the data set with CYP3A4 (data generated by AbbVie team) and 12% in the data set with CYP3A4 (data generated by Galapagos). Besides, the “CYP (3A4) mRNA induction, result in words” value in the data set with CYP3A4 is “devoid of any CYP induction liability”. For the same molecule, the CLu dog in the data set “PK dog” (unbound clearance) was 8.3 mL/min/kg.
